PubChem BioAssay AID1919004 (Molecular Pharmacology Branch, DTP, NCI, 2023)

Test system: 883617-216-R-J1-PDC complex spheroids, growth, % test/control
Assay: Anticancer human tumor 883617-216-R-J1-PDC patient-derived bladder carcinoma cell line growth inhibition [AhR]
Details: for IC50: curve of first compound; for viability, T/C: stronger effect = lower value
From the text: Multicellular complex tumor spheroid response to aryl hydrocarbon receptor antagonists in combination with a variety of drugs and investigational agents in selected tumor cell lines
The current study was undertaken to assess response to aryl hydrocarbon receptor antagonists in combination with standard-of-care drugs and investigational agents in solid tumor complex spheroid models. Complex spheroids include a stromal component modeled by human endothelial cells (HUVEC) and fibroblasts modeled by human mesenchymal stem cells (MSCs). The concentration ranges selected for each drug and investigational agent were based upon clinically achievable concentrations if the clinical Cmax of the agent was known.
Compounds. The drugs and investigational agents: BAY 2416964 (NSC825713), GNF351 (NSC835774), CH-223191 (NSC835775), CPI-455 (NSC825282), aza-TdCyd (NSC777586), decitabine (NSC127716), belinostat (NSC758774), entinostat (NSC756642), pevonedistat (NSC761192), tazemetostat (NSC777109), talazoparib (NSC765396), olaparib (NSC753686), selinexor (NSC780203), nedisertib (M3814, NSC802822), bortezomib (NSC756655), venetoclax (NSC766270), doxorubicin (NSC123127), elimusertib (BAY189344, NSC800525), ceralasertib (AZD6738, NSC777638), TAK-243 (NSC785004), alisertib (NSC759677), etoposide (NSC141540), topotecan (NSC609699), eribulin (NSC707389), gemcitabine (NSC613327), carboplatin (NSC241240), cisplatin (NSC119875), and SN-38 (NSC673596) were obtained from the National Cancer Institute (NCI) Developmental Therapeutics Program Chemical Repository (32). The FDA-approved anticancer drug set is available from the Developmental Therapeutics Program at https://dtp.cancer.gov/organization/dscb/obtaining/available plates.htm. […] The stock solutions were prepared in dimethyl sulfoxide (DMSO, Sigma-Aldrich, St. Louis, MO, cat. D2650), except for the platinum compounds which were prepared in saline (Quality Biological, Gaithersburg, MD, cat. 114-055-101), at 800-fold the tested concentration and stored at -70 degrees C prior to their use. All drugs and investigational agents were tested over a range starting from a high concentration at or near the clinical Cmax and decreasing in half-log increments. If the clinical Cmax for an agent had not been determined, the highest concentration tested was 10 microM (Table 1).
Cell Culture. All cells were maintained in an incubator at 37 degrees C and 5% CO2 with 95% humidity. The PDC lines were cultured according to standard operating procedures established by the NCI PDMR (https://pdmr.cancer.gov). Briefly, all PDCs were thawed and cultured in Matrigel-coated flasks prepared with a working solution of 1X Ham's F-12 nutrient mix, without supplementation (Invitrogen, Waltham, MA, cat. 11765054), 100 U/mL penicillin-streptomycin (Invitrogen, cat. 15140122), and 2.5% Matrigel (Corning Inc., Corning, NY, cat. 354248) for the first three passages. All PDCs were cultured in complete DMEM/F-12 media containing advanced DMEM/F-12 (Invitrogen, cat. 12634028), 4.9% defined fetal bovine serum, heat inactivated (HyClone Laboratories Inc., Logan, UT, cat. SH30070.03HI), 389 ng/mL hydrocortisone (Sigma-Aldrich, cat. H4001), 9.7 ng/mL human EGF recombinant protein (Invitrogen, cat. PHG0313), 23.4 microg/mL adenine (Sigma-Aldrich, cat. A2786), 97.3 U/mL penicillin-streptomycin (Invitrogen, cat. 15140122), 1.9 mM L-glutamine (Invitrogen, cat. 25030081), and 9.7 microM Y-27632 dihydrochloride (Tocris Bioscience, Bristol, United Kingdom, cat. 1254). The PDCs were cultured in complete DMEM/F12 media without 10 microM Y-27632 dihydrochloride for at least two passages prior to the screen. The established cell lines NCI-H1341 and […] were cultured in DMEM/F-12, HEPES (Invitrogen, cat. 11330032), 5% defined fetal bovine serum (HyClone Laboratories Inc., cat. SH30070.03), ITS premix universal culture supplement [insulin (5 microg/mL), transferrin (5 microg/mL), and selenious acid (5 ng/mL)] […]

[1] = second compound 0.1 µM, first compound 0.0316 µM
[2] = second compound 0.1 µM, first compound 0.1 µM
[3] = second compound 0.1 µM, first compound 0.316 µM
[4] = second compound 0.1 µM, first compound 1 µM
[5] = second compound 0.1 µM, first compound 3.16 µM
[6] = second compound 0.1 µM, first compound 10 µM
[7] = second compound 0.316 µM, first compound 0.0316 µM
[8] = second compound 0.316 µM, first compound 0.1 µM
[9] = second compound 0.316 µM, first compound 0.316 µM
[10] = second compound 0.316 µM, first compound 1 µM
[11] = second compound 0.316 µM, first compound 3.16 µM
[12] = second compound 0.316 µM, first compound 10 µM
[13] = second compound 1 µM, first compound 0.0316 µM
[14] = second compound 1 µM, first compound 0.1 µM
[15] = second compound 1 µM, first compound 0.316 µM
[16] = second compound 1 µM, first compound 1 µM
[17] = second compound 1 µM, first compound 3.16 µM
[18] = second compound 1 µM, first compound 10 µM
[19] = second compound 3.16 µM, first compound 0.0316 µM
[20] = second compound 3.16 µM, first compound 0.1 µM
[21] = second compound 3.16 µM, first compound 0.316 µM
[22] = second compound 3.16 µM, first compound 1 µM
[23] = second compound 3.16 µM, first compound 3.16 µM
[24] = second compound 3.16 µM, first compound 10 µM
[25] = second compound 10 µM, first compound 0.0316 µM
[26] = second compound 10 µM, first compound 0.1 µM
[27] = second compound 10 µM, first compound 0.316 µM
[28] = second compound 10 µM, first compound 1 µM
[29] = second compound 10 µM, first compound 3.16 µM
[30] = second compound 10 µM, first compound 10 µM
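Note: exposure lasted 7 days after dosing on day 3 of spheroid growth.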

COc1cc(C2c3cc4c(cc3C(OC3OC5COC(C)OC5C(O)C3O)C3COC(=O)C23)OCO4)cc(OC)c1O (stereo not given) + CC(CO)NC(=O)c1cc(-c2ccc(Cl)cc2)nn(-c2cnn(C)c2)c1=O
IC50 (second compound 0.1 µM): > 10000 nM | IC50 (second compound 0.316 µM): > 10000 nM | IC50 (second compound 1 µM): > 10000 nM | IC50 (second compound 3.16 µM): > 10000 nM | IC50 (second compound 10 µM): > 10000 nM | viability, T/C [1]: 75.2% | viability, T/C [2]: 90.2% | viability, T/C [3]: 108% | viability, T/C [4]: 66.3% | viability, T/C [5]: 84.1% | viability, T/C [6]: 60.1% | viability, T/C [7]: 63.8% | viability, T/C [8]: 84.5% | viability, T/C [9]: 85.3% | viability, T/C [10]: 67.7% | viability, T/C [11]: 101% | viability, T/C [12]: 69.4% | viability, T/C [13]: 60.3% | viability, T/C [14]: 76.7% | viability, T/C [15]: 90% | viability, T/C [16]: 83.5% | viability, T/C [17]: 84.3% | viability, T/C [18]: 53.3% | viability, T/C [19]: 81.1% | viability, T/C [20]: 85.8% | viability, T/C [21]: 74.3% | viability, T/C [22]: 69.3% | viability, T/C [23]: 65% | viability, T/C [24]: 102% | viability, T/C [25]: 91.7% | viability, T/C [26]: 70.8% | viability, T/C [27]: 89.6% | viability, T/C [28]: 81.3% | viability, T/C [29]: 53.5% | viability, T/C [30]: 77.3%

COc1cccc2c1C(=O)c1c(O)c3c(c(O)c1C2=O)CC(O)(C(=O)CO)CC3OC1CC(N)C(O)C(C)O1 (stereo not given) + CC(CO)NC(=O)c1cc(-c2ccc(Cl)cc2)nn(-c2cnn(C)c2)c1=O
IC50 (second compound 0.1 µM): 269 nM | IC50 (second compound 0.316 µM): 456 nM | IC50 (second compound 1 µM): 501 nM | IC50 (second compound 3.16 µM): 230 nM | IC50 (second compound 10 µM): 167 nM | viability, T/C [1]: 115% | viability, T/C [2]: 116% | viability, T/C [3]: 39.2% | viability, T/C [4]: 4.71% | viability, T/C [5]: 2.59% | viability, T/C [6]: 1.67% | viability, T/C [7]: 90.5% | viability, T/C [8]: 94.2% | viability, T/C [9]: 70.9% | viability, T/C [10]: 4.94% | viability, T/C [11]: 5.79% | viability, T/C [12]: 4.67% | viability, T/C [13]: 95.2% | viability, T/C [14]: 93.9% | viability, T/C [15]: 82.1% | viability, T/C [16]: 1.75% | viability, T/C [17]: 2.44% | viability, T/C [18]: 1.47% | viability, T/C [19]: 91.5% | viability, T/C [20]: 107% | viability, T/C [21]: 31.2% | viability, T/C [22]: 3.13% | viability, T/C [23]: 3.56% | viability, T/C [24]: 0.65% | viability, T/C [25]: 113% | viability, T/C [26]: 65.8% | viability, T/C [27]: 32.6% | viability, T/C [28]: 1.76% | viability, T/C [29]: 1.75% | viability, T/C [30]: 1.1%

Nc1ncn(C2CC(O)C(CO)O2)c(=O)n1 (stereo not given) + CC(CO)NC(=O)c1cc(-c2ccc(Cl)cc2)nn(-c2cnn(C)c2)c1=O
IC50 (second compound 0.1 µM): > 1000 nM | IC50 (second compound 0.316 µM): > 1000 nM | IC50 (second compound 1 µM): > 1000 nM | IC50 (second compound 3.16 µM): > 1000 nM | IC50 (second compound 10 µM): > 1000 nM | viability, T/C (second compound 0.1 µM, first compound 0.00316 µM): 101% | viability, T/C (second compound 0.1 µM, first compound 0.01 µM): 79.9% | viability, T/C [1]: 76.8% | viability, T/C [2]: 72.5% | viability, T/C [3]: 81.7% | viability, T/C [4]: 82.3% | viability, T/C (second compound 0.316 µM, first compound 0.00316 µM): 67.2% | viability, T/C (second compound 0.316 µM, first compound 0.01 µM): 90.2% | viability, T/C [7]: 101% | viability, T/C [8]: 76.4% | viability, T/C [9]: 71.7% | viability, T/C [10]: 89.7% | viability, T/C (second compound 1 µM, first compound 0.00316 µM): 90.7% | viability, T/C (second compound 1 µM, first compound 0.01 µM): 60.6% | viability, T/C [13]: 78.8% | viability, T/C [14]: 72.1% | viability, T/C [15]: 75.1% | viability, T/C [16]: 78.8% | viability, T/C (second compound 3.16 µM, first compound 0.00316 µM): 83.3% | viability, T/C (second compound 3.16 µM, first compound 0.01 µM): 61.1% | viability, T/C [19]: 81% | viability, T/C [20]: 76.8% | viability, T/C [21]: 56.8% | viability, T/C [22]: 78.1% | viability, T/C (second compound 10 µM, first compound 0.00316 µM): 59% | viability, T/C (second compound 10 µM, first compound 0.01 µM): 84.8% | viability, T/C [25]: 115% | viability, T/C [26]: 93.1% | viability, T/C [27]: 75.7% | viability, T/C [28]: 81.2%
